Molecular target: T1, His-hMAGL (recombinant polyhistidine tagged human MAGL protein) (Homo sapiens, UniProt Q99685)
T1 construct: polyhistidine (His) (N); made in house; host or cells: E. coli BL21(DE3)
T1 sequence (Q99685 1-303): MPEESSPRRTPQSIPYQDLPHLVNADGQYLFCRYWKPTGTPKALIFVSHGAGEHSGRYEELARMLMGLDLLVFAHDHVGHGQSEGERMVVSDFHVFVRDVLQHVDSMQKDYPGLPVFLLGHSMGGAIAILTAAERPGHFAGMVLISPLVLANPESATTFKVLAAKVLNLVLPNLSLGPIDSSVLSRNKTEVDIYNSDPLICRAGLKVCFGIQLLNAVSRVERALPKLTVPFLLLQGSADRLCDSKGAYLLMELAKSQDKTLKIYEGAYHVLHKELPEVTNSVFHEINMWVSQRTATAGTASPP
Assay: Measurement of MAGL inhibitory activity (RapidFire-mass spectrometry of arachidonic acid produced from 2-arachidonylglycerol)
Assay type: biochemical
Settings: test compound 10 μM, His-hMAGL, substrate 2-arachidonylglycerol, 60 min preincubation; for inhibition at 10 µM: read-out: % inhibition (10 μM)
Experimental: Furthermore, acetonitrile (50 μL) containing 3 μM arachidonic acid-d8 (Cayman Chemical Company) was added and the mixture was stirred.
The amount of arachidonic acid in the obtained enzyme reaction mixture was calculated by measuring by RapidFire-mass spectrometry and correcting by the amount of arachidonic acid-d8. High Throughput online solid phase extraction was performed using RapidFire 300™ system (Agilent Technologies, Inc.). Samples were loaded on SPE C4 cartridge (Agilent Technologies, Inc.) and desalted with 0.2 (v/v) % acetic acid (Wako Pure Chemical Industries, Ltd.) in ultrapure water/acetonitrile (70/30, v/v) at a flow rate of 1.5 mL/min, eluted at a flow rate of 0.5 mL/min with 0.2(v/v) % acetic acid dissolved in acetonitrile/ultrapure water (90/10, v/v), and injected into the mass spectrometry part. The injection needle was washed with ultrapure water (500 millisecond) and acetonitrile (500 millisecond) to minimize carry-over. […] The RapidFire300 system was controlled by RapidFire UI software version 3.6 (Agilent Technologies, Inc.).
The mass spectrometry of the resultant product was performed using API4000™ triple quadrupole mass spectrometer (AB SCIEX) equipped with an electrospray ion source (TurboIon Spray™) in a negative selected reaction monitoring (SRM) mode. The conditions of SRM are shown below. The parameters of the instrument were optimized as follows: capillary temperature 600° C., ion spray voltage −4.5 kV, collision gas 8, curtain gas 15 psi, ion source gas 1 60 psi, ion source gas 2 60 psi. The mass spectrometer was controlled by Analyst™ software version 1.5.1 (AB SCIEX). The peak area integration was analyzed using RapidFire integrator software version 3.6 (Agilent Technologies, Inc.).
MAGL inhibitory rate (%) was calculated according to the following calculation formula. (1-(arachidonic acid production amount of test compound addition group−arachidonic acid production amount of enzyme-free group)÷(arachidonic acid production amount of test compound-free group−arachidonic acid production amount of enzyme-free group))×100

Row | SMILES | inhibition at 10 µM [%] | further results
1 | O=C1N[C@]2(CO1)C[C@H](C(=O)N1CC(CC(F)(F)c3ccc(Cl)c(C(F)(F)F)c3)C1)C2 [Example 118, (2s,4s)-2-((3-(2-(4-chloro-3-(trifluoromethyl)phenyl)-2,2-difluoroethyl)azetidin-1-yl)carbonyl)-7-oxa-5-azaspiro[3.4]octan-6-one] | 100 | 
2 | CC(c1ccccc1)(c1ccccc1)C1CCN(C(=O)[C@H]2C[C@]3(COC(=O)N3)C2)CC1 [Example 51, (2s,4s)-2-((4-(1,1-diphenylethyl)piperidin-1-yl)carbonyl)-7-oxa-5-azaspiro[3.4]octan-6-one] | 101 | 
3 | CC(Oc1ccc(F)c(F)c1F)C1CCN(C(=O)[C@H]2C[C@]3(CCC(=O)N3)C2)CC1 (some centres unmarked) [Example 74, (2r,4s)-2-((4-(1-(2,3.4-trifluorophenoxy)ethyl)piperidin-1-yl)carbonyl)-5-azaspiro[3.4]octan-6-one] | 101 | 
4 | O=C1N[C@]2(CO1)C[C@H](C(=O)N1CC(/C=C(\F)c3ccc(C(F)(F)F)c(F)c3F)C1)C2 [Example 104, (2s,4s)-2-((3-((Z)-2-(2,3-difluoro-4-(trifluoromethyl)phenyl)-2-fluorovinyl)azetidin-1-yl)carbonyl)-7-oxa-5-azaspiro[3.4]octan-6-one] | 100 | 
5 | Cc1cc(F)ccc1OC(C)C1CCN(C(=O)[C@H]2C[C@]3(COC(=O)N3)C2)CC1 (some centres unmarked) [Example 20, (2s,4s)-2-((4-(1-(4-fluoro-2-methylphenoxy)ethyl)piperidin-1-yl)carbonyl)-7-oxa-5-azaspiro[3.4]octan-6-one] | 100 | 
6 | Cc1ccc(OC(C)C2CCN(C(=O)[C@H]3C[C@]4(COC(=O)N4)C3)CC2)c(F)c1 (some centres unmarked) [Example 46, (2s,4s)-2-((4-(1-(2-fluoro-4-methylphenoxy)ethyl)piperidin-1-yl)carbonyl)-7-oxa-5-azaspiro[3.4]octan-6-one] |  | % inhibition (10 μM): 100%
7 | CC1(C2CCN(C(=O)[C@H]3C[C@]4(COC(=O)N4)C3)CC2)Cc2cc(F)cc(Cl)c2O1 (some centres unmarked) [Example 27, (2s,4s)-2-((4-(7-chloro-5-fluoro-2-methyl-2,3-dihydro-1-benzofuran-2-yl)piperidin-1-yl)carbonyl)-7-oxa-5-azaspiro[3.4]octan-6-one] | 101 | 
8 | CC(Oc1ccc(C(F)(F)F)cc1F)C1CN(C(=O)[C@H]2C[C@]3(COC(=O)N3)C2)C1 (some centres unmarked) [Example 13, (2s,4s)-2-((3-(1-(2-fluoro-4-(trifluoromethyl)phenoxy)ethyl)azetidin-1-yl)carbonyl)-7-oxa-5-azaspiro[3.4]octan-6-one] |  | % inhibition (10 μM): 100%
9 | O=C1N[C@]2(CO1)C[C@H](C(=O)N1CC(OCc3cc(Cl)c(F)c(Cl)c3)C1)C2 [Example 106, (2s,4s)-2-((3-((3,5-dichloro-4-fluorobenzyl)oxy)azetidin-1-yl)carbonyl)-7-oxa-5-azaspiro[3.4]octan-6-one] | 100 | 
10 | CC(Oc1ccc(F)cc1C(F)(F)F)C1CCN(C(=O)[C@H]2C[C@]3(COC(=O)N3)C2)CC1 (some centres unmarked) [Example 67, (2s,4s)-2-((4-(1-(4-fluoro-2-(trifluoromethyl)phenoxy)ethyl)piperidin-1-yl)carbonyl)-7-oxa-5-azaspiro[3.4]octan-6-one] |  | % inhibition (10 μM): 100%
11 | O=C1N[C@]2(CO1)C[C@H](C(=O)N1CCC(OCc3ccc(Cl)cc3Cl)CC1)C2 [Example 24, (2s,4s)-2-((4-((2,4-dichlorobenzyl)oxy)piperidin-1-yl)carbonyl)-7-oxa-5-azaspiro[3.4]octan-6-one] | 100 | 
12 | O=C1N[C@]2(CO1)C[C@H](C(=O)N1CC(CC(F)(F)c3ccc(C(F)(F)F)c(F)c3F)C1)C2 [Example 103, (2s,4s)-2-((3-(2-(2,3-difluoro-4-(trifluoromethyl)phenyl)-2,2-difluoroethyl)azetidin-1-yl)carbonyl)-7-oxa-5-azaspiro[3.4]octan-6-one] | 100 | 
13 | O=C1N[C@]2(CO1)C[C@H](C(=O)N1CCC(COc3ccc(N4CC(F)C4)cc3Cl)CC1)C2 [Example 49, (2s,4s)-2-((4-((2-chroro-4-(3-fluoroazetidin-1-yl)phenoxy)methyl)piperidin-1-yl)carbonyl)-7-oxa-5-azaspiro[3.4]octan-6-one] | 101 | 
14 | O=C1N[C@]2(CO1)C[C@H](C(=O)N1CC(COc3ccc(Cl)cc3Cl)C1)C2 [Example 79, (2s,4s)-2-((3-((2,4-dichlorophenoxy)methyl)azetidin-1-yl)carbonyl)-7-oxa-5-azaspiro[3.4]octan-6-one] | 100 | 
15 | CC1(C2CCN(C(=O)[C@H]3C[C@]4(COC(=O)N4)C3)CC2)Cc2cc(F)cc(F)c2O1 (some centres unmarked) [Example 16, (2s,4s)-2-((4-(5,7-difluoro-2-methyl-2,3-dihydro-1-benzofuran-2-yl)piperidin-1-yl)carbonyl)-7-oxa-5-azaspiro[3.4]octan-6-one] | 100 | 
16 | CC1(C2CCN(C(=O)[C@H]3C[C@]4(COC(=O)N4)C3)CC2)Cc2ccc(C(F)(F)F)cc2O1 (some centres unmarked) [Example 71, (2s,4s)-2-((4-(2-methyl-6-(trifluoromethyl)-2,3-dihydro-1-benzofuran-2-yl)piperidin-1-yl)carbonyl)-7-oxa-5-azaspiro[3.4]octan-6-one] |  | % inhibition (10 μM) (10 µM): 101%
17 | CCc1cc(OCC2CN(C(=O)[C@H]3C[C@]4(COC(=O)N4)C3)C2)c(F)cc1C(F)(F)F [Example 86, (2s,4s)-2-((3-((5-ethyl-2-fluoro-4-(trifluoromethyl)phenoxy)methyl)azetidin-1-yl)carbonyl)-7-oxa-5-azaspiro[3.4]octan-6-one] | 100 | 
18 | Cc1ccc(COC2CN(C(=O)[C@H]3C[C@]4(COC(=O)N4)C3)C2)c(F)c1F [Example 94, (2s,4s)-2-((3-((2,3-difluoro-4-methylbenzyl)oxy)azetidin-1-yl)carbonyl)-7-oxa-5-azaspiro[3.4]octan-6-one] | 100 | 
19 | N#Cc1cc(Cl)ccc1OCC1CCN(C(=O)[C@H]2C[C@]3(COC(=O)N3)C2)CC1 [Example 129, 5-chloro-2-((1-(((2s,4s)-6-oxo-7-oxa-5-azaspiro[3.4]oct-2-yl)carbonyl)piperidin-4-yl)methoxy)benzonitrile] | 100 | 
20 | O=C1N[C@]2(CO1)C[C@H](C(=O)N1CC(CC(F)(F)c3ccc(C(F)(F)F)c(F)c3)C1)C2 [Example 99, (2s,4s)-2-((3-(2,2-difluoro-2-(3-fluoro-4-(trifluoromethyl)phenyl)ethyl)azetidin-1-yl)carbonyl)-7-oxa-5-azaspiro[3.4]octan-6-one] | 100 | 
21 | CC(Oc1c(F)cc(F)cc1F)C1CCN(C(=O)[C@H]2C[C@]3(COC(=O)N3)C2)CC1 (some centres unmarked) [Example 88, (2s,4s)-2-((4-(1-(2,4,6-trifluorophenoxy)ethyl)piperidin-1-yl)carbonyl)-7-oxa-5-azaspiro[3.4]octan-6-one] |  | % inhibition (10 μM): 100%
22 | Cc1cc(F)ccc1OC(C)C1CCN(C(=O)[C@H]2C[C@]3(COC(=O)N3)C2)CC1 (some centres unmarked) [Example 33, (2s,4s)-2-((4-(1-(4-fluoro-2-methylphenoxy)ethyl)piperidin-1-yl)carbonyl)-7-oxa-5-azaspiro[3.4]octan-6-one] |  | % inhibition (10 μM) (10 µM): 101%
23 | Cc1ccc(OC(C)C2CCN(C(=O)[C@H]3C[C@]4(COC(=O)N4)C3)CC2)c(F)c1 (some centres unmarked) [Example 28, (2s,4s)-2-((4-(1-(2-fluoro-4-methylphenoxy)ethyl)piperidin-1-yl)carbonyl)-7-oxa-5-azaspiro[3.4]octan-6-one] | 100 | 
24 | CC1(C2CCN(C(=O)[C@H]3C[C@]4(COC(=O)N4)C3)CC2)Cc2cc(C(F)(F)F)ccc2O1 (some centres unmarked) [Example 68, (2s,4s)-2-((4-(2-methyl-5-(trifluoromethyl)-2,3-dihydro-1-benzofuran-2-yl)piperidin-1-yl)carbonyl)-7-oxa-5-azaspiro[3.4]octan-6-one] |  | % inhibition (10 μM) (10 µM): 100%
25 | CC(Oc1ccc(F)cc1F)C1CCN(C(=O)[C@H]2C[C@]3(COC(=O)N3)C2)CC1 (some centres unmarked) [Example 15, (2s,4s)-2-((4-(1-(2,4-difluorophenoxy)ethyl)piperidin-1-yl)carbonyl)-7-oxa-5-azaspiro[3.4]octan-6-one] | 100 | 
26 | O=C1N[C@]2(CO1)C[C@H](C(=O)N1CC(COc3cc(C(F)(F)F)cc(C(F)(F)F)c3)C1)C2 [Example 83, (2s,4s)-2-((3-((3,5-bis(trifluoromethyl)phenoxy)methyl)azetidin-1-yl)carbonyl)-7-oxa-5-azaspiro[3.4]octan-6-one] | 100 | 

Source: patent US10323026B2, “Heterocyclic compound” (Takeda Pharmaceutical Company Limited, priority 2016, dated 2019)
